Patent US20260137703A1, “2-AMINO-PYRIDO[2,3-D]PYRIMIDIN-7(8H)-ONE AND 7-AMINO-1-PYRIMIDO[4,5-D]PYRIMIDIN-2(1 H)-ONE DERIVATIVES AS EGFR INHIBITORS FOR THE TREATMENT OF CANCER” (Cancer Research Technology Limited, priority 2022, published 2026)

How the values were obtained:
[1] = target: T1, Phospho-EGFR (Tyr1068) in H1975 cells (Homo sapiens, UniProt P00533, L858R/T790M); test: HTRF pEGFR/total EGFR in H1975 cells; format: cell-based; settings: ratio pEGFR/total EGFR, compound 3 hours
T1 construct: host or cells: H1975
T1 sequence (P00533 25-1210 T790M/L858R): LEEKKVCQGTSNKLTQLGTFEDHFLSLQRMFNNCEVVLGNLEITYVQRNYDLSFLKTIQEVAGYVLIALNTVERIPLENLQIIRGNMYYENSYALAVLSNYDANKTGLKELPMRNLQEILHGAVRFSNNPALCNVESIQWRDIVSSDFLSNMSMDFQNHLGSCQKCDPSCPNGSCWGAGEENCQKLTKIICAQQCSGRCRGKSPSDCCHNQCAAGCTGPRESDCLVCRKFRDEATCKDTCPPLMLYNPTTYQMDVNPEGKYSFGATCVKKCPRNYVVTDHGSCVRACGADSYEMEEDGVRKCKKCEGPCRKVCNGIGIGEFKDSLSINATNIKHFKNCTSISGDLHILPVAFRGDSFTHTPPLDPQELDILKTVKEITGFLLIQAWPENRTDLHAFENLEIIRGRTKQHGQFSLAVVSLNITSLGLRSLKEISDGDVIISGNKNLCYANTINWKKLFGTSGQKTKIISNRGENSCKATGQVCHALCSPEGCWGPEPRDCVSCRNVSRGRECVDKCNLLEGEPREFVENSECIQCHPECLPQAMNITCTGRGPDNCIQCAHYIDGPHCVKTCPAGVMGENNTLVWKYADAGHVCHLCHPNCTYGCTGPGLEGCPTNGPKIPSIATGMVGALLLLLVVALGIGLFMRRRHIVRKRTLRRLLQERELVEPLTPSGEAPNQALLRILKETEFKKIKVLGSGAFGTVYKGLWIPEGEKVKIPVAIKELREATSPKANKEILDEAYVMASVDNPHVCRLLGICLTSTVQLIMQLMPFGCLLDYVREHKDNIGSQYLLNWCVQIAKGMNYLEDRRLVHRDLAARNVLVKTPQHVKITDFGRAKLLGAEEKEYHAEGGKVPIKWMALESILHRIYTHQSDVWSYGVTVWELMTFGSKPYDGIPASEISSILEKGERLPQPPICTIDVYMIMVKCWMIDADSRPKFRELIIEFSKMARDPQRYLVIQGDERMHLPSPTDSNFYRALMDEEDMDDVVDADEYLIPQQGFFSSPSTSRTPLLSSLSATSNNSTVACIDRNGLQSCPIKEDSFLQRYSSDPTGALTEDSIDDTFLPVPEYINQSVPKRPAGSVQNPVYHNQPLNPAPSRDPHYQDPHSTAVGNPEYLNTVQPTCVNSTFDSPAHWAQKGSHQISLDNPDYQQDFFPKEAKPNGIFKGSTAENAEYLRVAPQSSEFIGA
Summary of the method: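 H1975 cells (EGFR L858R/T790M) treated 3 h with compound in 0.1% DMSO, in duplicate, 24 h after plating. Lysates assayed by HTRF for pEGFR (Tyr1068) and total EGFR at 665/620 nm; values are pEGFR/total EGFR ratio as percent of 0 μM control.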

[2] = target: CtermHisTag-mEGFR Wild type (Homo sapiens, UniProt P00533); test: biochemical
Chain of CtermHisTag-mEGFR Wild type (P00533 whole entry): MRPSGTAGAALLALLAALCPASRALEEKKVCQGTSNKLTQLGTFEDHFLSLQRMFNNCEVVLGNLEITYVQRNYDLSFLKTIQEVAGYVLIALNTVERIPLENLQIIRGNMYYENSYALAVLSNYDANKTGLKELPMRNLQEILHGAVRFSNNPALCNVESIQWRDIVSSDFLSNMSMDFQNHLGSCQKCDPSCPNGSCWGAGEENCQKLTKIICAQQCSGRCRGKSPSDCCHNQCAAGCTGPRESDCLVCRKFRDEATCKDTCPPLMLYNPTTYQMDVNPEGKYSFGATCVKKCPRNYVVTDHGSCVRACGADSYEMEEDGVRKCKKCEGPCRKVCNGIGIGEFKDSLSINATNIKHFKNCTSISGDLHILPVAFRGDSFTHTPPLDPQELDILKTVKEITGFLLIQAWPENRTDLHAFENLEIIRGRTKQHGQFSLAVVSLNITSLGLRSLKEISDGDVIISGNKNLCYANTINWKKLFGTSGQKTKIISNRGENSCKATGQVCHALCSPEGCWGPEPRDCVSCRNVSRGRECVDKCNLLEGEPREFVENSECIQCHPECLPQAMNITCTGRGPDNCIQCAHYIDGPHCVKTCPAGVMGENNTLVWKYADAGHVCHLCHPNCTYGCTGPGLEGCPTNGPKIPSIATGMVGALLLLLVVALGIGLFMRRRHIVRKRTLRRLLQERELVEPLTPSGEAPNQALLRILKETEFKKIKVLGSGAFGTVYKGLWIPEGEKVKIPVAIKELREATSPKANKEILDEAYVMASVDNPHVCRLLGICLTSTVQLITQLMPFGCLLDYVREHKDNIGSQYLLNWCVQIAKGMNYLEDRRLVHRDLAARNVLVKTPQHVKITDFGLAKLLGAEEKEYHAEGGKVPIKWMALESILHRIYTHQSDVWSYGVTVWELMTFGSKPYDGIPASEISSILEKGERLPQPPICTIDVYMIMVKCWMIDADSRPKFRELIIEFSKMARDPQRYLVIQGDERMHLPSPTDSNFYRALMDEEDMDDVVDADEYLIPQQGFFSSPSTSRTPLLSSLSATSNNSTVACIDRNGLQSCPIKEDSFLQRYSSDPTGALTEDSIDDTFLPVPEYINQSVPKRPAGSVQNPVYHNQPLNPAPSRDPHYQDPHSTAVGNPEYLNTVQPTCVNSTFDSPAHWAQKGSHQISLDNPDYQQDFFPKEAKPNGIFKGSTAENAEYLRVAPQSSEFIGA

[3] = target: T2, Phospho-EGFR (Tyr1068) in H1975 C797S cells (CRISPR-edited EGFR C797S) (Homo sapiens, UniProt P00533, C797S/L858R/T790M); test: HTRF pEGFR/total EGFR in H1975 C797S cells; format: cell-based; settings: ratio pEGFR/total EGFR, compound 3 hours
T2 construct: host or cells: H1975 C797S (CRISPR-edited)
T2 sequence (P00533 25-1210 T790M/C797S/L858R): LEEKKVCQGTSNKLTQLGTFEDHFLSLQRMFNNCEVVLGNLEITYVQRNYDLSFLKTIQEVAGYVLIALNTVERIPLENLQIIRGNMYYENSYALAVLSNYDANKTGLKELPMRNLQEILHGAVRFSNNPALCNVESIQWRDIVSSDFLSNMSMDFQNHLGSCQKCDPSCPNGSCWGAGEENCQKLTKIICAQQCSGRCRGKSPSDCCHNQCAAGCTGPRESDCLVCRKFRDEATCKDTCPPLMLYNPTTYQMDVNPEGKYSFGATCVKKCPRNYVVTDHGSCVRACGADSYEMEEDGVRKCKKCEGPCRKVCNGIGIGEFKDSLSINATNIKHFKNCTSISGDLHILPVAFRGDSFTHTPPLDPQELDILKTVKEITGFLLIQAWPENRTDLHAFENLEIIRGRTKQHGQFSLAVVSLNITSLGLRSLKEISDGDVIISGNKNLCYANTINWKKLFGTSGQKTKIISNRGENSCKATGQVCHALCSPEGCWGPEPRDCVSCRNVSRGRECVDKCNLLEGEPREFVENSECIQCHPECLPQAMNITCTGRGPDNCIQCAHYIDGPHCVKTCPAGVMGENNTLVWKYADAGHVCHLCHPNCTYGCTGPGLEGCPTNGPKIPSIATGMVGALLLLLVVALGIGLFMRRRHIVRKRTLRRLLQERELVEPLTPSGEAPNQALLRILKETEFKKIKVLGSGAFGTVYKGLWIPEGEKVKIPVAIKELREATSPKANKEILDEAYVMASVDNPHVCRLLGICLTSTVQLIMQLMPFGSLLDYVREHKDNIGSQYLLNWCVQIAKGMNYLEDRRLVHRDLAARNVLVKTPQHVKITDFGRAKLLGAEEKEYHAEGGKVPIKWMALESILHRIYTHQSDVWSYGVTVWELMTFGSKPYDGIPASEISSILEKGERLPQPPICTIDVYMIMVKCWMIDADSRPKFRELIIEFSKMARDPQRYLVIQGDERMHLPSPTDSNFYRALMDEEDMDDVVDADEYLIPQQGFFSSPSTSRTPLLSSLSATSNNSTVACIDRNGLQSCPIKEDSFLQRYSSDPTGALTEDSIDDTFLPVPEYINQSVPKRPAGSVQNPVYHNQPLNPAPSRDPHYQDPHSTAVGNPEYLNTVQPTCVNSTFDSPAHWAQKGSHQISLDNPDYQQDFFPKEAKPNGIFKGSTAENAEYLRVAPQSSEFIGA
Summary of the method: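 Adhered H1975 C797S cells got compound for 3 h in duplicate at 0.1% DMSO final, then were lysed 30 min at room temperature. HTRF kits quantified phospho-EGFR (Tyr1068) and total EGFR (665/620 nm); results are pEGFR/total EGFR ratio as percent of 0 μM control.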

[4] = target: T3, Phospho-EGFR (Tyr1068) in A431 cells (Homo sapiens, UniProt P00533); test: HTRF pEGFR/total EGFR in A431 cells with EGF stimulation; format: cell-based; settings: ratio pEGFR/total EGFR, compound 2.5 hours then 100 ng/ml EGF 30 mins
T3 construct: endogenous in cells; host or cells: A431
T3 sequence (P00533 25-1210): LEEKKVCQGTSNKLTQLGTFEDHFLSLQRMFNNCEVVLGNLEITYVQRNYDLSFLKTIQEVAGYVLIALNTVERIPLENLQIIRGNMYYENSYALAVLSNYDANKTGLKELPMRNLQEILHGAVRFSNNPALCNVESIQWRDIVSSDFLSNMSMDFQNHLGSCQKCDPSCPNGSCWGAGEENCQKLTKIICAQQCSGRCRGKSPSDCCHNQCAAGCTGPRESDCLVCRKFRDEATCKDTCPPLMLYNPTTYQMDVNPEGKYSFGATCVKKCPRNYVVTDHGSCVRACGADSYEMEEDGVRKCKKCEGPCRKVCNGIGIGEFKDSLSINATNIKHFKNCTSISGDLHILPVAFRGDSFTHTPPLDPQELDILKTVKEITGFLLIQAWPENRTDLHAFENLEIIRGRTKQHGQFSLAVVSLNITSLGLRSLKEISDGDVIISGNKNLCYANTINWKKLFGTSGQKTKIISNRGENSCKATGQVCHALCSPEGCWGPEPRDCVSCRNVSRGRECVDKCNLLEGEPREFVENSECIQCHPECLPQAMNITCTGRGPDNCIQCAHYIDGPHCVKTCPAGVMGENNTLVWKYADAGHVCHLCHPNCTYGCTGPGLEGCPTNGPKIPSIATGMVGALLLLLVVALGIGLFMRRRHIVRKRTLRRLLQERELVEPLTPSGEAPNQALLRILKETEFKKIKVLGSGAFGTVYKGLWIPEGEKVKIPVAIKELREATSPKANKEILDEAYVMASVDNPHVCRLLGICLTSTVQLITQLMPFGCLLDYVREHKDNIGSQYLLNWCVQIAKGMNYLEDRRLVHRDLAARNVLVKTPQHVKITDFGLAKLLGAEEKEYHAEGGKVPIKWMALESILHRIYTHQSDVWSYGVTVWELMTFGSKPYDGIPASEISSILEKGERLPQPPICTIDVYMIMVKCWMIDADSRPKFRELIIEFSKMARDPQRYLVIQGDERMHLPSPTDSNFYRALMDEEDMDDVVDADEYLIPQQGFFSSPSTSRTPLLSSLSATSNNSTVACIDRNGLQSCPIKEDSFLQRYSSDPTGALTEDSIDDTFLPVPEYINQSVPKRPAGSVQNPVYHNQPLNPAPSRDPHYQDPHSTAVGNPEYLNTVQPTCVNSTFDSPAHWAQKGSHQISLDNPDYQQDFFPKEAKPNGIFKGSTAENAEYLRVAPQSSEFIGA
Summary of the method: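 A431 cells were plated at 20,000 per well, allowed 24 h to adhere, then given compound for 2.5 h (0.1% DMSO final). They were then stimulated with 100 ng/ml EGF for 30 min and lysed. HTRF measured Tyr1068-phospho and total EGFR at 665/620 nm, with pEGFR/total EGFR expressed as % of the 0 μM control.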

| SMILES | IC50 [1] | IC50 [2] | IC50 [3] | IC50 [4] |
| --- | --- | --- | --- | --- |
| C#Cc1c(-c2ccccc2Cl)c(=O)n(C)c2nc(Nc3ccc(N4CCN(C)CC4)cc3OC)ncc12 [Example 127, 6-(2-chlorophenyl)-5-ethynyl-2-{[2-methoxy-4-(4-methylpiperazin-1-yl)phenyl]amino}-8-methylpyrido[2,3-d]pyrimidin-7-one] | 500 to 1000 nM | < 1000 nM | 1 to 3 µM | 0.5 to 1 µM |
| C#Cc1c(-c2ccccc2Cl)c(=O)n(C)c2nc(Nc3ccc(N4CCN(C)CC4)cc3)ncc12 [Example 128, 6-(2-chlorophenyl)-5-ethynyl-8-methyl-2-{[4-(4-methylpiperazin-1-yl)phenyl]amino}pyrido[2,3-d]pyrimidin-7-one] | 500 to 1000 nM | < 1000 nM | > 3 µM | < 0.5 µM |
| C#Cc1c(-c2ccccc2Cl)c(=O)n(C)c2nc(Nc3ccc(OCCN(C)C)cc3)ncc12 [Example 129, 6-(2-chlorophenyl)-2-({4-[2-(dimethylamino)ethoxy]phenyl}amino)-5-ethynyl-8-methylpyrido[2,3-d]pyrimidin-7-one] | 500 to 1000 nM | < 1000 nM | > 3 µM | 0.5 to 1 µM |
| C#Cc1c(-c2ccccc2Cl)c(=O)n(C)c2nc(Nc3cccc(OC)c3)ncc12 [Example 131, 6-(2-chlorophenyl)-5-ethynyl-2-[(3-methoxyphenyl)amino]-8-methylpyrido[2,3-]pyrimidin-7-one] | 1000 to 3000 nM | 1000 to 10000 nM | > 3 µM | > 3 µM |
| C#Cc1c(-c2ccccc2Cl)c(=O)n(C)c2nc(Nc3cccc(CO)c3)ncc12 [Example 132, 6-(2-chlorophenyl)-5-ethynyl-2-{[3-(hydroxymethyl)phenyl]amino}-8-methylpyrido[2,3-]pyrimidin-7-one] | 500 to 1000 nM | < 1000 nM | 1 to 3 µM | 1 to 3 µM |
| C#Cc1c(-c2c(Cl)cccc2Cl)c(=O)n(C)c2nc(Nc3ccc(N(C)CCN(C)C)cc3)ncc12 [Example 134, 6-(2,6-dichlorophenyl)-2-[(4-{[2-(dimethylamino)ethyl](methyl)amino}phenyl)amino]-5-ethynyl-8-methylpyrido[2,3-d]pyrimidin-7-one] | > 3000 nM | > 10000 nM | > 3 µM | > 3 µM |
| C#Cc1c(-c2cccc(F)c2Cl)c(=O)n(C)c2nc(Nc3ccc(N(C)CCN(C)C)cc3)ncc12 [Example 135, 6-(2-chloro-3-fluorophenyl)-2-[(4-{[2-(dimethylamino)ethyl](methyl)amino}phenyl)amino]-5-ethynyl-8-methylpyrido[2,3-d]pyrimidin-7-one] | 500 to 1000 nM | < 1000 nM | 0.5 to 1 µM | 1 to 3 µM |
| C#Cc1c(-c2cc(OC)ccc2Cl)c(=O)n(C)c2nc(Nc3ccc(N(C)CCN(C)C)cc3)ncc12 [Example 136, 6-(2-chloro-5-methoxyphenyl)-2-[(4-{[2-(dimethylamino)ethyl](methyl)amino}phenyl)amino]-5-ethynyl-8-methylpyrido[2,3-d]pyrimidin-7-one] | < 500 nM | < 1000 nM | 0.5 to 1 µM | 1 to 3 µM |
| C#Cc1c(-c2cc(F)ccc2Cl)c(=O)n(C)c2nc(Nc3ccc(N(C)CCN(C)C)cc3)ncc12 [Example 137, 6-(2-chloro-5-fluorophenyl)-2-[(4-{[2-(dimethylamino)ethyl](methyl)amino}phenyl)amino]-5-ethynyl-8-methylpyrido[2,3-d]pyrimidin-7-one] | 500 to 1000 nM | < 1000 nM | < 0.5 µM | 1 to 3 µM |
| C#Cc1c(-c2ccncc2Cl)c(=O)n(C)c2nc(Nc3ccc(N(C)CCN(C)C)cc3)ncc12 [Example 139, 6-(3-chloropyridin-4-yl)-2-[(4-{[2-(dimethylamino)ethyl](methyl)amino}phenyl)amino]-5-ethynyl-8-methylpyrido [2,3-d]pyrimidin-7-one] | 1000 to 3000 nM | < 1000 nM | 1 to 3 µM | > 3 µM |
| C#Cc1c(Nc2ccccc2)c(=O)n(C)c2nc(Nc3ccc(N(C)CCN(C)C)cc3)ncc12 [Example 144, 2-[(4-{[2-(dimethylamino)ethyl](methyl)amino}phenyl)amino]-5-ethynyl-8-methyl-6-(phenylamino)pyrido[2,3-d]pyrimidin-7-one] | 1000 to 3000 nM | < 1000 nM | 1 to 3 µM | < 0.5 µM |
| C#Cc1c(C2CC2)c(=O)n(C)c2nc(Nc3ccc(N4CCN(C)CC4)cc3)ncc12 [Example 148, 6-cyclopropyl-5-ethynyl-8-methyl-2-{[4-(4-methylpiperazin-1-yl)phenyl]amino}pyrido[2,3-d]pyrimidin-7-one] | > 3000 nM | > 10000 nM | > 3 µM | > 3 µM |
| C#Cc1c(C)c(=O)n(C)c2nc(Nc3ccc(N4CCN(C)CC4)cc3)ncc12 [Example 149, 5-ethynyl-6,8-dimethyl-2-{[4-(4-methylpiperazin-1-yl)phenyl]amino}pyrido[2,3-d]pyrimidin-7-one] | > 3000 nM | 1000 to 10000 nM | > 3 µM | > 3 µM |
| C#Cc1c(-c2cccs2)c(=O)n(C)c2nc(Nc3ccc(N4CCN(C)CC4)cc3)ncc12 [Example 150, 5-ethynyl-8-methyl-2-{[4-(4-methylpiperazin-1-yl)phenyl]amino}-6-(thiophen-2-yl)pyrido[2,3-d]pyrimidin-7-one] | > 3000 nM | 1000 to 10000 nM | 1 to 3 µM | > 3 µM |
| C#Cc1c(C)c(=O)n(-c2ccccc2)c2nc(Nc3ccc(N4CCN(C)CC4)cc3)ncc12 [Example 151, 5-Ethynyl-6-methyl-2-{[4-(4-methylpiperazin-1-yl)phenyl]amino}-8-phenylpyrido[2,3-d]pyrimidin-7-one] | 500 to 1000 nM | 1000 to 10000 nM | 0.5 to 1 µM | 1 to 3 µM |
| C=Cc1cc(=O)n(-c2ccc(OC)cc2OC)c2nc(Nc3ccc(N(C)CCN(C)C)cc3)ncc12 [Example 155, 8-(2,4-dimethoxyphenyl)-2-[(4-{[2-(dimethylamino)ethyl](methyl)amino}phenyl)amino]-5-ethenylpyrido[2,3-d]pyrimidin-7-one] | > 3000 nM | 1000 to 10000 nM | > 3 µM | > 3 µM |
| C=Cc1cc(=O)n(-c2cccc(OC)c2)c2nc(Nc3ccccc3OC)ncc12 [Example 156, 8-(3-Methoxyphenyl)-2-((2-methoxyphenyl)amino)-5-vinylpyrido[2,3-d]pyrimidin-7(8H)-one] | > 3000 nM | > 10000 nM | > 3 µM | > 3 µM |
| C=Cc1cc(=O)n(-c2ccc(OC)cc2)c2nc(Nc3ccccc3OC)ncc12 [Example 157, 8-(4-Methoxyphenyl)-2-((2-methoxyphenyl)amino)-5-vinylpyrido[2,3-d]pyrimidin-7(8H)-one] | > 3000 nM | > 10000 nM | > 3 µM | > 3 µM |
| C=Cc1c(-c2ccccc2Cl)c(=O)n(C)c2nc(Nc3ccc(N4CCN(C)CC4)cc3OC)ncc12 [Example 170, 6-(2-chlorophenyl)-5-ethenyl-2-{[2-methoxy-4-(4-methylpiperazin-1-yl)phenyl]amino}-8-methylpyrido[2,3-d]pyrimidin-7-one] | > 3000 nM | > 10000 nM | > 3 µM | > 3 µM |
| C=Cc1c(-c2ccccc2Cl)c(=O)n(C)c2nc(Nc3ccc(OCCN(C)C)cc3)ncc12 [Example 172, 6-(2-chlorophenyl)-2-({4-[2-(dimethylamino)ethoxy]phenyl}amino)-5-ethenyl-8-methylpyrido[2,3-d]pyrimidin-7-one] | > 3000 nM | > 10000 nM | > 3 µM | > 3 µM |
| C#Cc1c(C)c(=O)n(Cc2cnoc2)c2nc(Nc3ccc(N4CCN(C)CC4)cc3)ncc12 [Example 175, 5-Ethynyl-6-methyl-2-{[4-(4-methylpiperazin-1-yl)phenyl]aminol}-8-(1,2-oxazol-4-ylmethyl)pyrido[2,3-d]pyrimidin-7-one] | > 3000 nM | > 10000 nM | > 3 µM | > 3 µM |
| C#Cc1c(C)c(=O)n(Cc2cnco2)c2nc(Nc3ccc(N4CCN(C)CC4)cc3)ncc12 [Example 176, 5-Ethynyl-6-methvl-2-{[4-(4-methylpiperazin-1-yl)phenyl]aminol}-8-(1,3-oxazol-5-ylmethyl)pyrido[2,3-d]pyrimidin-7-one] | 1000 to 3000 nM | < 1000 nM | 1 to 3 µM | > 3 µM |
| C#Cc1c(C)c(=O)n(Cc2ncc[nH]2)c2nc(Nc3ccc(N4CCN(C)CC4)cc3)ncc12 [Example 177, 5-Ethynyl-8-(1H-imidazol-2-ylmethyl)-6-methyl-2-{[4-(4-methylpiperazin-1-yl)phenyl]amino}pyrido[2,3-d]pyrimidin-7-one] | > 3000 nM | 1000 to 10000 nM | > 3 µM | > 3 µM |
